Assay results: publication PMC11456426, “Study of transport, tissue distribution, depletion, and hepatotoxicity of Cyadox, a quinoxaline-1,4-dioxide derivative” (Frontiers in Pharmacology, 2024)

Experiments:
[1] = Tissue distribution and depletion after oral [3H]-CYA for seven consecutive days; type: in vivo, Wistar rats; conditions: rats; for Tissue distribution and depletion of CYA (means ± SD) / t1/2 (elimination half-life): oral 10 mg/kg·bw x 7 days; for Tissue distribution and depletion of CYA (means ± SD): n = 4
Method: For the tissue distribution study, 24 rats were divided into six groups, one group as a blank control and five groups as five time point groups. Each time point group consisted of 4 rats (2 male and 2 female) administered [^3H]-CYA orally by gavage at 10 mg/kg bw (corresponded to a feed inclusion of approximately 100 mg/kg dose) for seven consecutive days, respectively. Dosing suspensions of [^3H]-CYA (2.08 Ci/mmol) were prepared in 0.5% aqueous carboxymethyl cellulose (CMC) at 4 mg/mL after being diluted with non-radiolabeled CYA to a specific activity of 9,044 dpm/µg. Another group of 4 rats (2 male and 2 female) was fed separately from the radioactive administration group for the blank control under the same conditions, sacrificed at 0 day. One group of 2 male and 2 female rats was randomly selected to be slaughtered at each time point (0.25, 1, 3, 7, and 14 days) after withdrawal. The rats were dissected, and blood, muscle, heart, liver, lung, spleen, kidney, skin, stomach, large intestine, small intestine, brain, cecum, testicle (or ovary), bladder, and bone (thigh bone) were collected separately and stored at −20°C until analysis. The weight of each tissue was recorded. Gastrointestinal tracts were stripped of their contents.
(§1) For radioactivity detection, the samples were combusted by PerkinElmer Oxidizer 307 (PerkinElmer Life and Analytical Sciences). ^3H2O was collected into 20 mL of scintillant (PerkinElmer Life and Analytical Sciences) with 10 mL of Monophase S, and sample radioassays were quantitated by PerkinElmer® TriCarb® 2900 (PerkinElmer Life and Analytical Sciences) with low-level quench-correction. Counting efficiency was above 65%.
(§2) Tissue samples for each sampling time from all animals were homogenized, aliquots of blood and urine were mixed thoroughly, and feces were homogenized in methanol/water (50:50; V/V). Samples of the blood (500 μL), urine (500 μL) feces (500 mg), bone, and all tissues (100–500 mg) were combusted in PerkinElmer Oxidizer 307 after being transferred into tared cones and pads (PerkinElmer Life and Analytical Sciences) and added an aliquot of Combustaid (200 μL; PerkinElmer Life and Analytical Sciences). Radioactivity in the combustion products was determined by collecting ^3H2O into distilled water followed by liquid scintillation counting. Combustion efficiency was determined daily, prior to the combustion of study samples, by using a diluted dose formulation or ^3H standard. The measured radioactivity content in the combusted samples was adjusted using the combustion efficiency values. Samples were analyzed for radioactivity for 5 min. Total residue concentrations were calculated from the specific activity and radioactivity per mass or volume and expressed as molar equivalents of CYA.

[2] = Excretion study, recovery of total radioactivity after single oral [3H]-CYA; type: in vivo, Wistar rats
Method: For the excretion study, a group of six rats (3 male and 3 female) were housed individually in metabolism cages, which allowed separate collection of urine and feces, and then administered with a single dose of 10 mg/kg bw (corresponded to a feed inclusion of approximately 100 mg/kg dose) [^3H]-CYA by oral gavage. Dosing suspensions of [^3H]-CYA were prepared in 0.5% aqueous CMC at 2 mg/mL after [^3H]-CYA (2.08 Ci/mmol) was diluted with non-radiolabeled CYA to a specific activity of 4.52 × 10^4 dpm/µg. Urine and feces were collected from intact animals for 7 days at 0–12, 12–24, 24–48, 48–72, 72–96, 96–120, 120–144, and 144–168 h after the dose, and the total weight of the urine and feces was recorded after each collection. At the end of the study, the animals are anesthetized, and once it's confirmed that they have lost consciousness, they are euthanized by exsanguination. The samples were stored at −20°C until analysis. Contents of gastrointestinal tracts were pooled with feces of 144–168 h time point. Each metabolism cage was thoroughly rinsed with a mixture of methanol/water (1:1; V/V), and the rinse solvent was collected and weighed. Each cage rinse was stirred thoroughly, […] of subsamples were removed, and radioactivities were analyzed immediately. One animal per gender was administered with non-radiolabeled CYA at the same dose, and animals were sacrificed at 6 h post-dose. Urine, feces, and tissues were collected for the blank controls.
as §1, §2

[3] = rats, single oral 10 mg/kg bw, 7 days

Tissue distribution and depletion of CYA (means ± SD) ([1]; Bladder, 6 h after withdrawal): 0.98863 ± 0.19738 mg/kg
Tissue distribution and depletion of CYA (means ± SD) ([1]; Blood, 6 h after withdrawal): 1.55298 ± 0.13322 mg/kg
Tissue distribution and depletion of CYA (means ± SD) ([1]; Blood, 1 d after withdrawal): 0.78575 ± 0.05613 mg/kg
Tissue distribution and depletion of CYA (means ± SD) ([1]; Blood, 3 d after withdrawal): 0.74887 ± 0.0257 mg/kg
Tissue distribution and depletion of CYA (means ± SD) ([1]; Blood, 7 d after withdrawal): 0.06989 ± 0.03612 mg/kg
t1/2 (elimination half-life) ([1]; Blood): 38.50 h
Tissue distribution and depletion of CYA (means ± SD) ([1]; Bone, 6 h after withdrawal): 0.49469 ± 0.05879 mg/kg
Tissue distribution and depletion of CYA (means ± SD) ([1]; Bone, 1 d after withdrawal): 0.28043 ± 0.05615 mg/kg
Tissue distribution and depletion of CYA (means ± SD) ([1]; Brain, 6 h after withdrawal): 0.62702 ± 0.06033 mg/kg
Tissue distribution and depletion of CYA (means ± SD) ([1]; Brain, 1 d after withdrawal): 0.45064 ± 0.04138 mg/kg
Tissue distribution and depletion of CYA (means ± SD) ([1]; Caecum, 6 h after withdrawal): 15.5409 ± 2.03867 mg/kg
Tissue distribution and depletion of CYA (means ± SD) ([1]; Caecum, 1 d after withdrawal): 0.56384 ± 0.06558 mg/kg
Tissue distribution and depletion of CYA (means ± SD) ([1]; Caecum, 3 d after withdrawal): 0.02075 ± 0.01112 mg/kg
t1/2 (elimination half-life) ([1]; Caecum): 7.45 h
Tissue distribution and depletion of CYA (means ± SD) ([1]; Heart, 6 h after withdrawal): 1.091 ± 0.1971 mg/kg
Tissue distribution and depletion of CYA (means ± SD) ([1]; Heart, 1 d after withdrawal): 0.66217 ± 0.10149 mg/kg
Tissue distribution and depletion of CYA (means ± SD) ([1]; Heart, 3 d after withdrawal): 0.24376 ± 0.04678 mg/kg
t1/2 (elimination half-life) ([1]; Heart): 31.50 h
Tissue distribution and depletion of CYA (means ± SD) ([1]; Kidney, 6 h after withdrawal): 6.24527 ± 0.67361 mg/kg
Tissue distribution and depletion of CYA (means ± SD) ([1]; Kidney, 1 d after withdrawal): 2.03447 ± 0.34637 mg/kg
Tissue distribution and depletion of CYA (means ± SD) ([1]; Kidney, 3 d after withdrawal): 1.14528 ± 0.11569 mg/kg
Tissue distribution and depletion of CYA (means ± SD) ([1]; Kidney, 7 d after withdrawal): 0.08605 ± 0.04177 mg/kg
t1/2 (elimination half-life) ([1]; Kidney): 28.88 h
Tissue distribution and depletion of CYA (means ± SD) ([1]; Large Intestine, 6 h after withdrawal): 2.32296 ± 0.11341 mg/kg
Tissue distribution and depletion of CYA (means ± SD) ([1]; Large Intestine, 1 d after withdrawal): 0.5581 ± 0.05702 mg/kg
Tissue distribution and depletion of CYA (means ± SD) ([1]; Large Intestine, 3 d after withdrawal): 0.12977 ± 0.0238 mg/kg
t1/2 (elimination half-life) ([1]; Large Intestine): 16.90 h
Tissue distribution and depletion of CYA (means ± SD) ([1]; Liver, 6 h after withdrawal): 5.04944 ± 0.37061 mg/kg
Tissue distribution and depletion of CYA (means ± SD) ([1]; Liver, 1 d after withdrawal): 2.35504 ± 0.25805 mg/kg
Tissue distribution and depletion of CYA (means ± SD) ([1]; Liver, 3 d after withdrawal): 1.4301 ± 0.17539 mg/kg
Tissue distribution and depletion of CYA (means ± SD) ([1]; Liver, 7 d after withdrawal): 0.12635 ± 0.04235 mg/kg
t1/2 (elimination half-life) ([1]; Liver): 33.00 h
Tissue distribution and depletion of CYA (means ± SD) ([1]; Lung, 6 h after withdrawal): 1.88405 ± 0.29415 mg/kg
Tissue distribution and depletion of CYA (means ± SD) ([1]; Lung, 1 d after withdrawal): 1.68108 ± 0.11214 mg/kg
Tissue distribution and depletion of CYA (means ± SD) ([1]; Lung, 3 d after withdrawal): 0.79745 ± 0.09581 mg/kg
Tissue distribution and depletion of CYA (means ± SD) ([1]; Lung, 7 d after withdrawal): 0.04918 ± 0.01852 mg/kg
t1/2 (elimination half-life) ([1]; Lung): 30.13 h
Tissue distribution and depletion of CYA (means ± SD) ([1]; Muscle, 6 h after withdrawal): 0.96902 ± 0.06106 mg/kg
Tissue distribution and depletion of CYA (means ± SD) ([1]; Muscle, 1 d after withdrawal): 0.52982 ± 0.05487 mg/kg
Tissue distribution and depletion of CYA (means ± SD) ([1]; Ovary, 6 h after withdrawal): 2.88421 ± 0.06688 mg/kg
Tissue distribution and depletion of CYA (means ± SD) ([1]; Ovary, 1 d after withdrawal): 0.32655 ± 0.03923 mg/kg
Tissue distribution and depletion of CYA (means ± SD) ([1]; Ovary, 3 d after withdrawal): 0.01887 ± 0.00619 mg/kg
t1/2 (elimination half-life) ([1]; Ovary): 9.63 h
Tissue distribution and depletion of CYA (means ± SD) ([1]; Skin/Fat, 6 h after withdrawal): 1.2996 ± 0.23417 mg/kg
Tissue distribution and depletion of CYA (means ± SD) ([1]; Skin/Fat, 1 d after withdrawal): 1.03596 ± 0.07642 mg/kg
Tissue distribution and depletion of CYA (means ± SD) ([1]; Skin/Fat, 3 d after withdrawal): 0.42024 ± 0.03644 mg/kg
Tissue distribution and depletion of CYA (means ± SD) ([1]; Skin/Fat, 7 d after withdrawal): 0.0253 ± 0.02233 mg/kg
Tissue distribution and depletion of CYA (means ± SD) ([1]; Small Intestine, 6 h after withdrawal): 2.86777 ± 0.1072 mg/kg
Tissue distribution and depletion of CYA (means ± SD) ([1]; Small Intestine, 1 d after withdrawal): 0.46368 ± 0.12091 mg/kg
Tissue distribution and depletion of CYA (means ± SD) ([1]; Small Intestine, 3 d after withdrawal): 0.05785 ± 0.01762 mg/kg
t1/2 (elimination half-life) ([1]; Small Intestine): 12.60 h
Tissue distribution and depletion of CYA (means ± SD) ([1]; Spleen, 6 h after withdrawal): 1.1278 ± 0.08725 mg/kg
Tissue distribution and depletion of CYA (means ± SD) ([1]; Spleen, 1 d after withdrawal): 0.75931 ± 0.04725 mg/kg
Tissue distribution and depletion of CYA (means ± SD) ([1]; Spleen, 3 d after withdrawal): 0.2717 ± 0.05323 mg/kg
Tissue distribution and depletion of CYA (means ± SD) ([1]; Spleen, 7 d after withdrawal): 0.02521 ± 0.04114 mg/kg
t1/2 (elimination half-life) ([1]; Spleen): 30.13 h
Tissue distribution and depletion of CYA (means ± SD) ([1]; Stomach, 6 h after withdrawal): 2.29013 ± 0.61619 mg/kg
Tissue distribution and depletion of CYA (means ± SD) ([1]; Stomach, 1 d after withdrawal): 0.44866 ± 0.04356 mg/kg
Tissue distribution and depletion of CYA (means ± SD) ([1]; Stomach, 3 d after withdrawal): 0.14233 ± 0.00993 mg/kg
t1/2 (elimination half-life) ([1]; Stomach): 18.24 h
Tissue distribution and depletion of CYA (means ± SD) ([1]; Testicle, 6 h after withdrawal): 1.05196 ± 0.00706 mg/kg
Tissue distribution and depletion of CYA (means ± SD) ([1]; Testicle, 1 d after withdrawal): 0.74037 ± 0.07782 mg/kg
Tissue distribution and depletion of CYA (means ± SD) ([1]; Testicle, 3 d after withdrawal): 0.3319 ± 0.05429 mg/kg
t1/2 (elimination half-life) ([1]; Testicle): 40.76 h
time of maximum concentrations in all detected organs or tissues ([1]; oral 10 mg/kg bw for seven consecutive days): 6 h
radioactivity excreted, % of total dose ([2]; 0–12 h post-dose): 21.03%
radioactivity excreted, % of total dose ([2]; 12–24 h post-dose): 70.25%
drug-related radioactivity excreted, % of administration amount ([2]; first 24 h after administration): 91.28%
radioactivity excreted in the feces [2, 3]: 60.25%
radioactivity excreted in the urine [2, 3]: 34.81%
radioactivity of the cage rinse [2, 3]: 0.78%
radioactivity remaining in the carcass [2, 3]: 0.38%
Overall recovery of total radioactivity ([2]; rats, single oral 10 mg/kg bw, within 7 days (168 h), n = 6): 96.22%
SMILES: [3H]c1ccc2c(c1)[n+]([O-])cc(/C=N/NC(=O)CC#N)[n+]2[O-] [[^3H]-CYA]
